pIC50: −log10 of the molar value. Where two headings read alike, the source gives them in different places.
Target: T1, human CXCR3 (N-delta 4) (Homo sapiens, UniProt P49682)
T1 construct: CD8 leader (N); Flag tag; expressed in transfected cells; membrane preparation
T1 sequence (P49682 5-368 limits assumed): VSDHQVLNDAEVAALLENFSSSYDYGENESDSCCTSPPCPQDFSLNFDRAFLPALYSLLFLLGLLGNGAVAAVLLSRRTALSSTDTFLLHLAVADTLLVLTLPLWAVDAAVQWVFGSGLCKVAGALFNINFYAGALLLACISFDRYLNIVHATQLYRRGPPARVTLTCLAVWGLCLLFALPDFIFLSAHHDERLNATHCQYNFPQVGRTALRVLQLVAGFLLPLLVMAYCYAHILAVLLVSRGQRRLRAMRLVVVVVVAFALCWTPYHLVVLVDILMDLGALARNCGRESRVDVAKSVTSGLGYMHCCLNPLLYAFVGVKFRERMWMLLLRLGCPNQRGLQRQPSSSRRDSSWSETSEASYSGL
Assay: Human CXCR3 (N-delta 4) Scintillation Proximity Assay (SPA), [125I] IP-10 binding
Conditions: Ba/F3-hCXCR3 (N-delta 4) membranes, 25 pM [125I] IP-10
Excerpt: The inventive compounds can readily be evaluated to determine activity at the CXCR3 receptors by known methods, such as, for example, development of a human CXCR3 (N-delta 4) Binding Assay.
Cloning and Expression of Human CXCR3 (N-delta 4):
The DNA encoding human CXCR3 was cloned by PCR using human genomic DNA (Promega, Madison, Wis.) as a template. The PCR primers were designed based on the published sequence of human orphan receptor GPR9 (1) with incorporated restriction sites, a Kozak consensus sequence, CD8 leader and Flag tag. The PCR product was subcloned into the mammalian expression vector pME18Sneo, a derivative of the SR-alpha expression vector (designated as pME18Sneo-hCXCR3 (N-delta 4).
IL-3-dependent mouse pro-B cells Ba/F3 were transfected by electroporation in 0.4 ml Dulbecco's PBS containing 4×10^6 cells with 20 μg of pME18Sneo-hCXCR3 (N-delta 4) plasmid DNA. Cells were pulsed at 400 Volts, 100 OHMs, […]. The transfected cells were under selection with 1 mg/ml G418 (Life Technologies, Gaithersburg, Md.). G418-resistant Ba/F3 clones were screened for CXCR3 expression by specific binding of [^125I] IP10 (NEN Life Science Products, Boston, Mass.).
Preparation of Ba/F3-hCXCR3 (N-delta 4) Membranes:
Ba/F3 cells expressing human CXCR3 (N-delta 4) were pelleted and resuspended in the lysis buffer containing 10 mM HEPES, pH 7.5 and Complete® protease inhibitors (1 tablet per 100 ml) (Boehringer Mannheim, Indianapolis, Ind.) at a cell density of 20×10^6 cells per ml. After 5 minute incubation on ice, cells were transferred to 4639 cell disruption bomb (Parr Instrument, Moline, Ill.) and applied with 1,500 psi of nitrogen for 30 minutes on ice. Large cellular debris was removed by centrifugation at 1,000×g. Cell membrane in the supernatant was sedimented at 100,000×g. The membrane was resuspended in the lysis buffer supplemented with 10% sucrose and stored at −80° C. Total protein concentration of the membrane was determined by BCA method from Pierce (Rockford, Ill.).
Human CXCR3 (N-delta 4) Scintillation Proximity Assay (SPA):
For each assay point, 2 μg of membrane was preincubated for 1 hr with 300 μg wheat germ agglutinin (WGA) coated SPA beads (Amersham, Arlington Heights, Ill.) in the binding buffer (50 mM HEPES, 1 mM CaCl2, 5 mM MgCl2, 125 mM NaCl, 0.002% NaN3, 1.0% BSA) at room temperature. The beads were spun down, washed once, resuspended in the binding buffer and transferred to a 96-well Isoplate (Wallac, Gaithersburg, Md.). 25 pM of [^125I] IP-10 with tested compounds in a series of titration were added to start the reaction. After 3 hr reaction at room temperature, the amount of [^125I] IP10 bound to the SPA beads was determined with a Wallac 1450 Microbeta counter.

Structure (SMILES)	pIC50 (IC50 ratings, read-out: IC50)	pIC50 (read-out: IC50 value)
CC[C@H]1CN(c2nc3[nH]c(=O)n(C(=O)OC(C)(C)C)c3nc2Cl)CCN1C1CCN(Cc2ccc(Cl)cc2)CC1 [Compound 8]	> 7.60	–
CC[C@H]1CN(c2cc3[nH]c(C(F)(F)F)nc3cc2Cl)CCN1C1CCN(Cc2ccc(Cl)cc2F)CC1 [Compound 9]	> 7.60	–
CCc1nc2nc(N3CCN(C4CCN(Cc5ccc(Cl)cc5F)CC4)[C@@H](CC)C3)c(Cl)nc2c(=O)n1CC [Compound 15]	> 7.60	–
CC[C@H]1CN(c2nc3[nH]c(=O)[nH]c3nc2Cl)CCN1C1CCN(Cc2ccc(-n3cccn3)cc2)CC1 [Compound 17]	> 7.60	–
CC[C@H]1CN(c2nc3ncn(CC)c(=O)c3nc2Cl)CCN1C1CCN(Cc2ccc(Cl)cc2)CC1 [Compound 20]	7.00 to 7.60	–
CC[C@H]1CN(c2cc3[nH]c(=O)[nH]c3cc2Cl)CCN1C1CCN(Cc2ccc(Cl)cc2F)CC1 [Compound 21]	7.00 to 7.60	–
CC[C@H]1CN(c2nc3c(nc2Cl)[nH]c(=O)n3Cc2ccc(Cl)cc2C#N)CCN1C1CCN(Cc2ccc(Cl)cc2C#N)CC1 [Compound 22]	7.00 to 7.60	–
CC[C@H]1CN(c2cc3[nH]cnc3cc2Cl)CCN1C1CCN(Cc2ccc(Cl)cc2F)CC1 [Compound 24]	7.00 to 7.60	–
CC[C@H]1CN(c2cc3[nH]cnc3cc2Cl)CCN1C1CCN(Cc2ccc(Cl)cc2F)CC1 [Compound 25]	< 7.00	–
CC[C@H]1CN(c2nc3[nH]c(=O)n(Cc4ccc(Cl)cc4C#N)c3nc2Cl)CCN1C1CCN(Cc2ccc(Cl)cc2C#N)CC1 [Compound 26]	< 7.00	–
CC[C@H]1CN(c2cc3[nH]c(=S)[nH]c3cc2Cl)CCN1C1CCN(Cc2ccc(Cl)cc2F)CC1 [Compound 28]	< 7.00	–
CC[C@H]1CN(c2cc3[nH]c(=O)c(=O)[nH]c3cc2Cl)CCN1C1CCN(Cc2ccc(Cl)cc2F)CC1 [Compound 29]	< 7.00	–
CCNC(=O)n1cnc2cc(Cl)c(N3CCN(C4CCN(Cc5ccc(Cl)cc5F)CC4)[C@@H](CC)C3)cc21 [Compound 31]	< 7.00	–
CC[C@H]1CN(c2cc3[nH]c(-c4ccccc4)nc3cc2Cl)CCN1C1CCN(Cc2ccc(Cl)cc2F)CC1 [Compound 32]	< 7.00	–
CC[C@H]1CN(c2cc3c(cc2Cl)nc(NS(C)(=O)=O)n3S(C)(=O)=O)CCN1C1CCN(Cc2ccc(Cl)cc2F)CC1 [Compound 35]	< 7.00	–
CC[C@H]1CN(c2cc3c(cc2Cl)nc(C(F)(F)F)n3C)CCN1C1CCN(Cc2ccc(Cl)cc2F)CC1 [Compound 37]	< 7.00	–
CCc1nc2nc(N3CCN(C4CCN(Cc5ccc(Cl)cc5F)CC4)[C@@H](CC)C3)c(O)nc2c(=O)n1CC [Compound 38]	< 7.00	–

Continued, values first:

pIC50 (IC50 ratings, read-out: IC50)	pIC50 (read-out: IC50 value)	Structure (SMILES)
< 7.00	–	CC[C@H]1CN(c2nc3[nH]c(=O)[nH]c3nc2Cl)CCN1C1CCN(C(C#N)c2ccc(Cl)cc2)CC1 (mixture of isomers) [Compound 33]
> 7.60	9.52	CC[C@H]1CN(c2nc3c(nc2Cl)CNc2c(c(=O)c2=O)N3)CCN1C1CCN(Cc2ccc(Cl)cc2F)CC1 [Compound 1]
> 7.60	–	CC[C@H]1CN(c2nc3[nH]c(=O)[nH]c3nc2Cl)CCN1C1CCN(Cc2ccc(Cl)cc2)CC1 [Compound 2]
> 7.60	–	CC[C@H]1CN(c2nc3[nH]c(=O)[nH]c3nc2Cl)CCN1C1CCN([C@@H](CO)c2ccc(Cl)cc2)CC1 [Compound 3]
> 7.60	–	CC[C@H]1CN(c2nc3c(nc2Cl)CNC(=O)N3)CCN1C1CCN(Cc2ccc(Cl)cc2F)CC1 [Compound 4]
> 7.60	–	CC[C@H]1CN(c2nc3c(nc2Cl)CN/C(=N\C#N)N3)CCN1C1CCN(Cc2ccc(Cl)cc2F)CC1 [Compound 5]
> 7.60	–	CC[C@H]1CN(c2nc3[nH]c(=O)[nH]c3nc2Cl)CCN1C1CCN(Cc2ccc(Cl)cc2F)CC1 [Compound 6]
> 7.60	–	CC[C@H]1CN(c2nc3[nH]c(=O)n(C)c(=O)c3nc2Cl)CCN1C1CCN(Cc2ccc(Cl)cc2)CC1 [Compound 7]
> 7.60	–	CC[C@H]1CN(c2nc3[nH]c(=O)[nH]c3nc2Cl)CCN1C1CCN([C@H](CO)c2ccc(Cl)cc2)CC1 [Compound 11]
> 7.60	–	CC[C@H]1CN(c2nc3[nH]c(=O)[nH]c3nc2Cl)CCN1C1CCN(C(=O)c2ccc(Cl)nc2N)CC1 [Compound 12]
> 7.60	–	CC[C@H]1CN(c2nc3[nH]c(=O)[nH]c3nc2Cl)CCN1C1CCN(Cc2ccc(Cl)cc2C#N)CC1 [Compound 13]
> 7.60	–	CC[C@H]1CN(c2nc3c(nc2Cl)CNC(=O)N3)CCN1C1CCN(C(=O)c2ccc(Cl)nc2N)CC1 [Compound 16]
7.00 to 7.60	–	CC[C@H]1CN(c2nc3c(nc2Cl)C(=O)NCCN3)CCN1C1CCN(C(=O)c2ccc(Cl)nc2N)CC1 [Compound 18]
7.00 to 7.60	–	CC[C@H]1CN(c2nc3[nH]c(=O)[nH]c3nc2Cl)CCN1C1CCN(C(=O)c2ccc(Cl)cc2)CC1 [Compound 19]
7.00 to 7.60	–	CC[C@H]1CN(c2nc3nc(C)n(CC)c(=O)c3nc2Cl)CCN1C1CCN(Cc2ccc(Cl)cc2F)CC1 [Compound 23]
< 7.00	–	CC[C@H]1CN(c2nc3[nH]c(=O)[nH]c3nc2Cl)CCN1C1CCN([C@H](C(=O)OC)c2ccc(Cl)cc2)CC1 [Compound 30]
< 7.00	–	CC[C@H]1CN(c2nc3c(nc2Cl)C(=O)NCCNC(=O)N3)CCN1C1CCN(C(=O)c2ccc(Cl)nc2N)CC1 [Compound 34]

Source: US7763616B2, “Piperazine-piperidines with CXCR3 antagonist activity” (Schering Corporation, priority 2005, dated 2010)
